Counter-ions that a name gives are not always drawn. Like-named read-outs stand apart in the source and are kept apart here.

Series [1] is described as follows: Compatibility with HPMCP HP-50 by residual content (% assay) after storage. Type of series: physicochemical. As to the method: In comparison, duloxetine crude materials and granulated duloxetine particles having similar size obtained by the conventional wet granulation were also assayed. The granulated duloxetine particles were granulated by the same second solvent (e.g., acetonitrile), which was used in the process of spherical agglomeration, and dried at 50° C. until LOD<1%. An enteric material, hypromellose phthalate (HPMCP) HP-50, which is known to cause degradation of duloxetine, was used in this test.
FIGS. 4A-D are electronic microscopic diagram of duloxetine in different states. […] In Table 7, “C” refers to crude material. “SA” refers to spherical agglomerates. “G” refers to granulated duloxetine particles.

The conditions of series [2]: pH 6.8 PBS 500 mL, basket 100 rpm, 37° C.

For `CNCC[C@H](Oc1cccc2ccccc12)c1cccs1` [Crude, duloxetine hydrochloride], in series [1], the “% Assay (residual content)” value was 98.39%. Besides, the “Duloxetine Release (%)” value came to 89.3% in series [2] (3 min); 95.8% in series [2] (6 min); 97.5% in series [2] (9 min); 98.4% in series [2] (12 min); 98.8% in series [2] (15 min); 99.1% in series [2] (18 min). Also, the “Duloxetine Release (%)” value was 99.4% in series [2] (21 min), 99.9% in series [2] (30 min) and 100.9% in series [2] (60 min).

These data come from patent US9833436B2, “Method of preparing drug agglomerate” (PharmaDax Inc., priority 2014, dated 2017).
